Patent US20170027973A1, “MODULARION OF INVARIANT NATURAL KILLER T CELLS IN THE TREATMENT OF SEPSIS” (LONDON HEALTH SCIENCES CENTRE RESEARCH INC., priority 2014, published 2017)

How the values were obtained:
Assay type in all cases: in vivo, mouse
serum IL-4 and IFN-γ = assay: Serum IL-4 and IFN-γ by ELISA after i.p. glycolipid injection into naïve B6 mice
Method: FIG. 10: Effect of glycolipid agonists on cytokine expression in naïve B6 mice, and on iNKT cells in septic B6 mice. (a) Naïve B6 mice were injected i.p. with 4 μg OCH or KRN7000 or C20:2, and bled at 2, 12, and 24 hours post-injection. Serum samples were assayed for IL-4 and IFN-γ by enzyme-linked immunosorbent assay (ELISA). […] Vehicle-treated mice had cytokine levels below limits of detection. (b) B6 mice were given an intraperitoneal injection of fecal slurry (500 μL of a 90 mg/mL solution) to induce IAS and concomitantly treated with 4 μg of vehicle, OCH, or KRN7000. After 24 hours, mice were sacrificed, and cell suspensions from the liver and spleen were stained for the flow cytometric detection of CD1d tetramer+ TCRβ+iNKT cells.
(§1) Lyophilized OCH was generously provided by the National Institutes of Health (NIH) Tetramer Core Facility (Emory University, Atlanta, Ga.). Each vial containing 0.2 mg of OCH was solubilized in a vehicle solution containing 1 mL of sterile distilled water, 0.5% Tween 20, 56 mg of sucrose and 7.5 mg of histidine, and stored as aliquots at 4° C. until use. KRN7000 (α-GalCer, C26:0/C18:0) was purchased from Funakoshi Co. Ltd. (Tokyo, Japan), solubilized at 1 mg/ml in dimethylsulphoxide (DMSO), and stored as aliquots at −20° C. until use (29); the control vehicle was 2% DMSO in phosphate-buffered saline (PBS). C20:2 was synthesized and used as previously published (30, 31). For in vivo experiments, mice were injected intraperitoneally (i.p.) with a single dose of glycolipid (4 μg/dose) (30) within twenty minutes after induction of IAS.
Cytokine concentrations were determined by commercially available specific ELISA assays for IL-4 and IFN-γ (Ready-Set-Go kits, eBioscience). ODs were measured on a Benchmark Microplate Reader (Bio-Rad) at a wavelength of 450 nm for both cytokines.

[1] = test system: B6 mice with intra-abdominal sepsis (IAS); assay: Murine intra-abdominal sepsis (IAS) model: survival and murine sepsis score (MSS); details: septic B6 mice; for median survival: 4 μg i.p. single dose, vehicle 24 hours; for murine sepsis score (MSS) after 24 h: compared to vehicle treatment
Method: Stool from the cecum of euthanized naïve B6 mice was expressed through an enterotomy, homogenized, and suspended in 0.9% normal saline (NS) to produce a fecal slurry at a final concentration of 90 mg/mL, for use in experiments on the same day. Mice were injected intraperitoneally with 500 μL fecal slurry or 0.9% normal saline (sham group). The mice were monitored and scored by two independent investigators—one of whom was blinded to the treatment—every 2-3 hours for the first 12 hours, and then every 1-2 hours thereafter. A murine sepsis score (MSS) was assigned to each mouse based on activity, eye movement, response to exogenous stimuli, breathing rate and pattern, and degree of piloerection (Shrum et al. BMC Research Notes 2014, 7:233). The MSS is a reliable and robust scoring system that has excellent inter-rater reliability (intra-class coefficient=0.96), high internal consistency (Cronbach α=0.92), and correlates with levels of certain pro-inflammatory cytokines such as IFN-γ and IL-1β during the experimental timeline (Shrum et al. BMC Research Notes 2014, 7:233). Mice were euthanized at 24 hours, or earlier if they were deemed to be in significant distress based on our scoring model. Euthanasia was carried out as described above. At the time of sacrifice, intra-cardiac blood was drawn into 1.5 mL micro-centrifuge tubes (BD Biosciences) and centrifuged for serum at 1000×g for 30 minutes at 4° C.
as §1

[2] = test system: splenic T, B, NK cells and macrophages; assay: Annexin V / 7-AAD flow cytometry of apoptotic splenic cell populations in septic B6 mice; details: for NK cell apoptosis / frequency of apoptotic macrophages: spleen; for frequency of apoptotic macrophages: compared to vehicle-treated mice
Excerpt: FIG. 7: Analysis of apoptotic cell populations in the spleens of septic B6 mice. Splenocytes from sham and septic B6 mice treated with OCH, KRN7000, or vehicle were stained for T, B, and Natural Killer (NK) cells, and macrophages, and further stained for Annexin V (a marker for early apoptosis) and 7-AAD viability dye. Early and late apoptotic cells (Annexin V+7AAD- and Annexin V+7AAD+ cells respectively) were quantified and compared between treatments. […] (n=3-6 mice per group). *p<0.05, **p<0.01, ***p<0.001 by one-way ANOVA with post-hoc Tukey's multiple comparison test. Data are representative of 3 independent experiments.
FIG. 8: Gating strategy to identify the percentage of apoptotic and necrotic immune cell populations. CD3-APC is shown as an example, but the same strategy was used for macrophages (F480-APC), B cells (B220-APC), and Natural Killer (NK) cells (NK1.1-PE).
Mouse hepatic, splenic, and omental cells (1×106), and human PBMCs (1×106) were washed with cold FACS buffer [PBS+2% fetal bovine serum (FBS)+0.1% sodium azide] and incubated with 5 μg/ml anti-mouse CD16/CD32 mAb (clone 2•4G2, Fc-block, eBiosciences) for 20 min on ice before staining with fluorescent monoclonal antibodies (mAbs) diluted in FACS buffer at 4° C. for 30-40 min. Cells were then washed and flow cytometry was performed using FACSCanto II (BD) with FlowJo software (Treestar).

inflammatory cytokines = assay: Multiplex cytokine quantification in sera and spleens of septic B6 mice
Method: FIG. 5: Cytokine levels in the sera and spleens of septic B6 mice. […] Concentrations of iNKT cell-specific cytokines are shown from sera (b) and spleen homogenates (c) of septic mice treated with vehicle, OCH, or KRN7000 (n=4-8 per group). Concentrations of cytokines are shown in pg/mL. *p<0.05, **p<0.01, ***p<0.001 by one-way ANOVA with post-hoc Tukey's multiple comparison test. Data are representative of at least three independent experiments.
Serum was analyzed by bead-based multiplex assay for 32 different cytokines, chemokines, and growth factors (Eve Technologies, Calgary, Alberta, Canada) including granulocyte-colony stimulating factor (G-CSF), granulocyte macrophage-colony stimulating factor (GM-CSF), interferon-gamma (IFN-γ), interleukin (IL)-1α, IL-1β, IL-2, IL-3, IL-4, IL-5, IL-6, IL-7, IL-9, IL-10, IL-12 (p40), IL-12 (p70), IL-13, IL-15, IL-17A, IP-10, keratinocyte chemo-attractant (KC), leukemia inhibitory factor (LIF), lipopolysaccharide-induced CXC chemokine (LIX), monocyte chemotactic protein (MCP)-1, monocyte-colony stimulating factor (M-CSF), monokine induced by gamma interferon (MIG), macrophage inflammatory protein (MIP)-1α, MIP-1β, MIP-2, Regulated on Activation, Normal T cell Expressed and Secreted (RANTES), tumour necrosis factor (TNF)-α, and vascular endothelial growth factor (VEGF). Multiplex data was visualized using a cytokine heat map that was generated using Matrix2png (33).

[3] = KRN7000 compared to OCH-treated group
[4] = compared to vehicle- and KRN7000-treated mice

For `CCCCCCCCCCCCCCCCCCCCCCCCCC(=O)N[C@@H](CO[C@H]1O[C@H](CO)[C@H](O)[C@H](O)[C@H]1O)[C@H](O)[C@H](O)CCCCCCCCCCCCCC` [KRN7000, reference compound], the “serum levels of IFN-γ between 12 and 24 hours” value (serum IL-4 and IFN-γ; 4 μg i.p.) was “elevated”, the “response to auditory and touch stimuli” value [1] was “non-responsive” and the median survival [1] was 22 h. The mortality ([1]; by 24 hours) was 100%, the “time to respiratory distress (laboured breathing and reduced respiratory rates)” value ([1]; most mice, post-sepsis) was no more than 15 h and the “murine sepsis score (MSS) after 24 h” value [1] was “no statistical differences”. For the same compound, the NK cell apoptosis [2] was “trend toward reduced apoptosis”, the “frequency of apoptotic macrophages” value [2] was “reduced the frequency of apoptosis significantly” and the “spleen IFN-γ” value (inflammatory cytokines; [3]) was “significantly elevated”. The “spleen IL-3” value (inflammatory cytokines; [3]) was “significantly elevated”, the “spleen IL-4” value (inflammatory cytokines; [3]) was “significantly elevated” and the “spleen IL-17” value (inflammatory cytokines; [3]) was “significantly elevated”. For the same compound, the “spleen TNF-α” value (inflammatory cytokines; [3]) was “significantly elevated”.
For `CCCCCCCCCCCCCCCCCCCCCCCC(=O)N[C@@H](COC1OC(CO)C(O)C(O)C1O)[C@H](O)[C@H](O)CCCCC` (stereo partly drawn) [OCH], the “serum IFN-γ at 24 hours” value (serum IL-4 and IFN-γ; 4 μg i.p.) was “almost undetectable”, the “time of peak of serum IFN-γ” value (serum IL-4 and IFN-γ; 4 μg i.p., ELISA) was 12 h and the “time of peak of serum IL-4” value (serum IL-4 and IFN-γ; 4 μg i.p., ELISA) was 2 h. For the same compound, the “serum IL-4 at 12 to 24 hours” value (serum IL-4 and IFN-γ; 4 μg i.p., relative to 2 hour peak) was “significantly reduced”, the “IL-4:IFN-γ ratio based on peak values” (serum IL-4 and IFN-γ; OCH compared to KRN7000) was “higher” and the “response to auditory and touch stimuli” value [1] was “more responsive”. For the same compound, the survival time ([1]; 4 μg i.p.) was greater than 24 h, the median survival [1] was 28 h and the respiratory status ([1]; observed up to 24 hours) was “relatively normal respiratory rates”. The “course of MSS over time” value ([1]; up to 24 hours) was “reached a plateau”, the “murine sepsis score (MSS) after 24 h” value [1] was “significantly lower” and the “apoptosis of splenic B cells” value [2, 4] was “significantly reduced”. The “apoptosis of splenic T cells” value [2, 4] was “significantly reduced”, the NK cell apoptosis [2] was “appeared to be reduced” and the “frequency of apoptotic macrophages” value [2] was “reduced the frequency of apoptosis significantly”. The “serum mean concentration of IL-17” value (inflammatory cytokines; OCH compared to KRN7000-treated) was “significantly lower” and the “serum concentration of IL-13” value (inflammatory cytokines; compared to KRN7000-treated and vehicle-treated) was “higher”.
